Values quoted from earlier work in patent publication US6440956B1, “Bicyclic polyaminoacid metal complexes, their process of preparation and their application in medical imaging” (Guerbet, priority 1999, dated 2002).

Settings: ratio to commercial gadolinium chelates; from Inorganic Chemistry 36(14) 2992-3000 (1997) and Magn. Reson. Chem. 36, S200-208 (1998)

O=C([O-])CN1CCN(CC(=O)[O-])Cc2cccc(n2)CN(CC(=O)[O-])CC1.[Gd+3] [PCTA]
longitudinal relaxation r1 relative to that of the gadolinium chelates used as contrast agents in magnetic resonance imaging in man: ~2 times
